According to patent US5955479A, “Levobupivacaine for managing chronic pain” (Darwin Discovery Ltd., priority 1993, dated 1999):
Counter-ions that a name gives are not always drawn.

What was measured:
[1] = Fatal dose of racbupivacaine HCl in sheep (increasing bolus doses until a fatal outcome); format: in vivo
Experimental: (§1) Four sheep weighing 39-49 kg (mean 44, SD 4 kg) were given increasing bolus doses (from 40 mg) of racbupivacaine HCl These were administered at least 1 day apart via a PVC cannula until a fatal outcome resulted. The heart and brain were removed within 20 min of death to be analysed for bupivacaine concentration. The heart was removed by transection through the great vessels approximately 20 mm above the level of the aortic valve, and 20 mm below the caudal border of the right atrium. Blood was immediately expressed from the cardiac chambers, and representative samples of the left and right atrium and ventricle were obtained, blotted and stored frozen (-20° C.) until assay. The brain was removed by transection at the level of the lower border of the pons, blotted and stored frozen as for the heart tissue.

[2] = surgical wound infiltrated before closure, 0.25%; cited from earlier work
[3] = some pain syndromes; cited from earlier work
[4] = chronic epidural and opioid infusions, 0.1 to 0.5% bupivacaine, cancer pain; cited from earlier work
[5] = Tissue concentrations of bupivacaine enantiomers in sheep post-mortem after increasing bolus doses of racbupivacaine HCl until fatal outcome; format: in vivo
Experimental: as §1
The variability in the fatal doses (80-200 mg) was reflected in the tissue concentrations measured post-mortem. Larger differences in the concentrations of both bupivacaine enantiomers in the atrium and ventricle were apparent.

[6] = Vanhoutte et al (1991); Denson et al (1992); cited from earlier work
[7] = described in PCT/GB94/02249; cited from earlier work
[8] = sheep No. 1, fatal dose 80 mg racbupivacaine HCl
[9] = sheep No. 2, fatal dose 80 mg racbupivacaine HCl
[10] = sheep No. 3, fatal dose 200 mg racbupivacaine HCl
[11] = sheep No. 4, fatal dose 200 mg racbupivacaine HCl
[12] = levobupivacaine vs dexbupivacaine

CCCCN1CCCCC1C(=O)Nc1c(C)cccc1C (racemic) [racbupivacaine HCl]
Fatal doses (variability) ([1]; four sheep, increasing bolus doses): 80 to 200 mg | Fatal dose ([1]; sheep No. 1, increasing bolus doses): 80 mg | Fatal dose ([1]; sheep No. 2, increasing bolus doses): 80 mg | Fatal dose ([1]; sheep No. 3, increasing bolus doses): 200 mg | Fatal dose ([1]; sheep No. 4, increasing bolus doses): 200 mg

CCCCN1CCCCC1C(=O)Nc1c(C)cccc1C (racemic) [racemic bupivacaine, 1-butyl-N-(2,6-dimethylphenyl)-2-piperidinecarboxamide]
Control of post-operative pain [2]: effective in the control of post-operative pain | Opioid requirements of patients recovering from herniorrhaphy [2]: reduce the opioid requirements | Analgesic usefulness in chronic administration [3]: useful in chronic administration as an analgesic in some pain syndromes | Bupivacaine clearance [4]: progressive reduction in bupivacaine clearance | R:S ratio of tissue concentration, Atrium [5, 8]: 0.92 | R:S ratio of tissue concentration, Brain [5, 8]: 1.06 | R:S ratio of tissue concentration, Ventricle [5, 8]: 1.18 | R:S ratio of tissue concentration, Atrium [5, 9]: 1.08 | R:S ratio of tissue concentration, Brain [5, 9]: 1.08 | R:S ratio of tissue concentration, Ventricle [5, 9]: 1.05 | R:S ratio of tissue concentration, Atrium [5, 10]: 0.99 | R:S ratio of tissue concentration, Brain [5, 10]: 1.09 | R:S ratio of tissue concentration, Ventricle [5, 10]: 1.03 | R:S ratio of tissue concentration, Atrium [5, 11]: 1.02 | R:S ratio of tissue concentration, Brain [5, 11]: 1.08 | R:S ratio of tissue concentration, Ventricle [5, 11]: 1.03

CCCCN1CCCC[C@@H]1C(=O)Nc1c(C)cccc1C [dexbupivacaine]
Uptake of enantiomers by ventricle and brain ([5]; both P=0.03 by the Students paired t test, four sheep): more (+)-(R)- than (-)-(S)-bupivacaine being taken up by these tissues | Uptake of enantiomers by atrium ([5]; four sheep, difference R vs S): This was not so for the atrium | Tissue concentration, Atrium [5, 8]: 5.70 µg/g | Tissue concentration, Brain [5, 8]: 6.91 µg/g | Tissue concentration, Ventricle [5, 8]: 9.93 µg/g | Tissue concentration, Atrium [5, 9]: 3.94 µg/g | Tissue concentration, Brain [5, 9]: 4.97 µg/g | Tissue concentration, Ventricle [5, 9]: 7.70 µg/g | Tissue concentration, Atrium [5, 10]: 17.9 µg/g | Tissue concentration, Brain [5, 10]: 12.7 µg/g | Tissue concentration, Ventricle [5, 10]: 45.6 µg/g | Tissue concentration, Atrium [5, 11]: 21.5 µg/g | Tissue concentration, Brain [5, 11]: 17.2 µg/g | Tissue concentration, Ventricle [5, 11]: 34.1 µg/g

CCCCN1CCCC[C@H]1C(=O)Nc1c(C)cccc1C [levobupivacaine]
Cardiotoxicity relative to dexbupivacaine and racemic bupivacaine [6]: probably less cardiotoxic than dexbupivacaine and racemic bupivacaine | Cardiodepressant effect relative to racemic bupivacaine [7]: reduced cardiodepressant effect | Accumulation in the heart and brain [5, 12]: does not accumulate in the heart and brain as much as the other component (dexbupivacaine) | Tissue uptake into ventricle and brain vs dexbupivacaine [5, 12]: less tissue uptake of levobupivacaine into ventricle and brain than dexbupivacaine | Clearance ([5]; levobupivacaine vs dexbupivacaine, inferred from tissue uptake): improved clearance | Tissue concentration, Atrium [5, 8]: 6.22 µg/g | Tissue concentration, Brain [5, 8]: 6.53 µg/g | Tissue concentration, Ventricle [5, 8]: 8.44 µg/g | Tissue concentration, Atrium [5, 9]: 3.65 µg/g | Tissue concentration, Brain [5, 9]: 4.59 µg/g | Tissue concentration, Ventricle [5, 9]: 7.36 µg/g | Tissue concentration, Atrium [5, 10]: 18.0 µg/g | Tissue concentration, Brain [5, 10]: 11.7 µg/g | Tissue concentration, Ventricle [5, 10]: 44.1 µg/g | Tissue concentration, Atrium [5, 11]: 21.2 µg/g | Tissue concentration, Brain [5, 11]: 16.3 µg/g | Tissue concentration, Ventricle [5, 11]: 33.3 µg/g
